According to patent publication US20250375419A1, “NOVEL RAS INHIBITORS” (KHR Biotec GmbH, priority 2022, published 2025):

Key:
Format in all cases: cell-based
[1] = test system: RAS protein of RASOpathie; test: RASOpathie-Model; MTT assay for cell viability in 96 well cell culture plate; settings: 48 h treatment
Method: FIG. 4: RASOpathie-Model of Tegaserode maleate; MTT assay for cell viability in 96 well cell culture plate
Cells were treated with Tegaserode maleate for 48 h and cell viability was evaluated by MTT assay. DMSO-treated cells were set as 1. The results shown are mean±SEM from 3 independent experiments.

[2] = test system: KRAS dependent cells; test: MTT assay for cell viability, KRAS dependent cells (FIG. 3a); settings: irrespective of the presence of mutation, 48 h
Method: (§1) FIGS. 3a) und 3b): MTT assay for cell viability in 96 well cell culture plate Cells were treated with compounds for 48 h and cell viability was evaluated by MTT assay. The results shown are mean from 3 independent experiments. DMSO-treated cells were set as 1. The results shown are mean±SEM from 1-3 independent experiments.
(§2) G12C/Y96D mutation is normally seen in patients, who develop resistance to G12C inhibitor. Thus, patients, who are resistant to G12C inhibitors can still be treated with Tegaserode maleate.

[3] = test system: BaF3 KRAS G12C/Y96D; test: MTT assay for cell viability in 96 well cell culture plate; settings: Mus musculus, 48 h treatment
Method: (§3) Metabolic activity was quantified using Cell Proliferation Kit I (Roche, Basel, Switzerland). Cells were seeded in 96-well cell culture plates, using 5000 cells per well for NCI-H358 cells. After treatment, 10 μl of MTT solution was added and incubated for 2 h in CO2 incubator. Then 100 μl of solubilization buffer was added to each well and incubated overnight in CO2 incubator. Cell viability, assessed by the amount of metabolized MTT, was quantified by measuring absorbance at 570 nm.
as §1, §2

[4] = test system: BaF3 KRAS G12C; test: as above; settings: Mus musculus, 48 h treatment
Method: as §3, §1, §2

[5] = test system: T24; test: Soft agar colony formation assay, colonies stained with MTT; settings: Homo sapiens, T-24; T24, growth in soft agar, MTT absorbance 570 nm, 3 independent experiments
Method: as §3
(§4) MTT assay for the growth of different tumour cell lines with RAS mutations in soft agar with Tegaserode maleate.
(§5) NCI-H358, H358, H2122, ASPC-1, HCT-116, T24 and HT1080 cells were used for the soft agar colony formation assay. After the treatment with Tegaserode maleate, the colonies were stained with MTT and the value was quantified by measuring absorbance at 570 nm after solubilization. The results represent mean±SEM from 3 independent experiments.

[6] = test system: NCI-H2122; test: as above; settings: Homo sapiens; NCI-H2122, growth in soft agar, MTT absorbance 570 nm, 3 independent experiments
Method: as §3, §4, §5

[7] = test system: NCI-H358; test: as above; settings: Homo sapiens; NCI-H358, growth in soft agar, MTT absorbance 570 nm, 3 independent experiments
Method: as §3, §4, §5

[8] = test system: ASPC1; test: as above; settings: Homo sapiens; ASPC1, growth in soft agar, MTT absorbance 570 nm, 3 independent experiments
Method: as §3, §4, §5

[9] = test system: HT1080; test: as above; settings: Homo sapiens, HT-1080; HT1080, growth in soft agar, MTT absorbance 570 nm, 3 independent experiments
Method: as §3, §4, §5

[10] = test system: HCT-116; test: as above; settings: Homo sapiens; HCT-116, growth in soft agar, MTT absorbance 570 nm, 3 independent experiments
Method: as §3, §4, §5

IC50 [3]: 2.86 µM
IC50 [4]: 10.2 µM
IC50 [5]: 11.3 µM
IC50 [6]: 3.37 µM
IC50 [7]: 5.39 µM
IC50 [8]: 4.76 µM
IC50 [9]: 2.43 µM
IC50 [10]: 3.12 µM
SMILES: CCCCCNC(=N)N/N=C/c1c[nH]c2ccc(OC)cc12.O=C(O)/C=C\C(=O)O [Tegaserode maleate, 2-[(5-Methoxy-1H-indol-3-yl)methylene]-N-pentyl-hydrazinecarboximidamide maleate]
inhibition of RAS protein of RASOpathie (cell viability) [1]: inhibits RAS protein of RASOpathie
inhibition of KRAS dependent cells [2]: inhibits KRAS dependent cells irrespective of the presence of mutation
